# Measured values as given in the NIST ThermoML archive (doi:10.1021/je501041r).
# ± gives the expanded uncertainty stated by the source.
# Test: xn = mol fraction of the nth substance listed
# Details: 101 kPa, Liquid; for viscosity: Capillary tube (Ostwald / Ubbelohde) method; for mass density: Vibrating tube method
smiles,measurement,setting,value
CCCCCCCO [heptan-1-ol] + CC(C)CC(C)(C)C,viscosity,"298.15 K, x2 = 0",6.004 ± 0.073 mPa·s
same,viscosity,"298.15 K, x2 = 0.1003",4.442 ± 0.054 mPa·s
same,viscosity,"298.15 K, x2 = 0.2002",3.258 ± 0.039 mPa·s
same,viscosity,"298.15 K, x2 = 0.3002",2.408 ± 0.029 mPa·s
same,viscosity,"298.15 K, x2 = 0.3999",1.793 ± 0.021 mPa·s
same,viscosity,"298.15 K, x2 = 0.5",1.349 ± 0.016 mPa·s
same,viscosity,"298.15 K, x2 = 0.6",1.059 ± 0.013 mPa·s
same,viscosity,"298.15 K, x2 = 0.6999",0.827 ± 0.01 mPa·s
same,viscosity,"298.15 K, x2 = 0.7999",0.672 ± 0.008 mPa·s
same,viscosity,"298.15 K, x2 = 0.8999",0.557 ± 0.007 mPa·s
same,mass density,"298.15 K, x2 = 0",818.82 ± 2 kg/m3
same,mass density,"298.15 K, x2 = 0.1003",804.69 ± 2 kg/m3
same,mass density,"298.15 K, x2 = 0.2002",790.62 ± 2 kg/m3
same,mass density,"298.15 K, x2 = 0.3002",776.7 ± 2 kg/m3
same,mass density,"298.15 K, x2 = 0.3999",763.07 ± 2 kg/m3
same,mass density,"298.15 K, x2 = 0.5",749.79 ± 2 kg/m3
same,mass density,"298.15 K, x2 = 0.6",736.64 ± 2 kg/m3
same,mass density,"298.15 K, x2 = 0.6999",723.94 ± 2 kg/m3
same,mass density,"298.15 K, x2 = 0.7999",711.51 ± 2 kg/m3
same,mass density,"298.15 K, x2 = 0.8999",699.33 ± 2 kg/m3
same,mass density,"298.15 K, x2 = 0.92",697.03 ± 2 kg/m3
same,mass density,"298.15 K, x2 = 0.94",694.61 ± 2 kg/m3
same,mass density,"298.15 K, x2 = 0.9599",692.3 ± 2 kg/m3
same,viscosity,"303.15 K, x2 = 0",5.079 ± 0.062 mPa·s
same,viscosity,"303.15 K, x2 = 0.1003",3.807 ± 0.046 mPa·s
same,viscosity,"303.15 K, x2 = 0.2002",2.834 ± 0.034 mPa·s
same,viscosity,"303.15 K, x2 = 0.3002",2.126 ± 0.025 mPa·s
same,viscosity,"303.15 K, x2 = 0.3999",1.597 ± 0.019 mPa·s
same,viscosity,"303.15 K, x2 = 0.5",1.224 ± 0.015 mPa·s
same,viscosity,"303.15 K, x2 = 0.6",0.988 ± 0.012 mPa·s
same,viscosity,"303.15 K, x2 = 0.6999",0.782 ± 0.009 mPa·s
same,viscosity,"303.15 K, x2 = 0.7999",0.627 ± 0.007 mPa·s
same,viscosity,"303.15 K, x2 = 0.8999",0.524 ± 0.006 mPa·s
same,mass density,"303.15 K, x2 = 0",815.3 ± 2 kg/m3
same,mass density,"303.15 K, x2 = 0.1003",801.1 ± 2 kg/m3
same,mass density,"303.15 K, x2 = 0.2002",786.96 ± 2 kg/m3
same,mass density,"303.15 K, x2 = 0.3002",772.96 ± 2 kg/m3
same,mass density,"303.15 K, x2 = 0.3999",759.26 ± 2 kg/m3
same,mass density,"303.15 K, x2 = 0.5",745.92 ± 2 kg/m3
same,mass density,"303.15 K, x2 = 0.6",732.7 ± 2 kg/m3
same,mass density,"303.15 K, x2 = 0.6999",719.94 ± 2 kg/m3
same,mass density,"303.15 K, x2 = 0.7999",707.45 ± 2 kg/m3
same,mass density,"303.15 K, x2 = 0.8999",695.21 ± 2 kg/m3
same,mass density,"303.15 K, x2 = 0.92",692.88 ± 2 kg/m3
same,mass density,"303.15 K, x2 = 0.94",690.48 ± 2 kg/m3
same,mass density,"303.15 K, x2 = 0.9599",688.17 ± 2 kg/m3
same,viscosity,"308.15 K, x2 = 0",4.374 ± 0.054 mPa·s
same,viscosity,"308.15 K, x2 = 0.1003",3.283 ± 0.04 mPa·s
same,viscosity,"308.15 K, x2 = 0.2002",2.518 ± 0.03 mPa·s
same,viscosity,"308.15 K, x2 = 0.3002",1.881 ± 0.023 mPa·s
same,viscosity,"308.15 K, x2 = 0.3999",1.437 ± 0.017 mPa·s
same,viscosity,"308.15 K, x2 = 0.5",1.13 ± 0.013 mPa·s
same,viscosity,"308.15 K, x2 = 0.6",0.913 ± 0.011 mPa·s
same,viscosity,"308.15 K, x2 = 0.6999",0.714 ± 0.008 mPa·s
same,viscosity,"308.15 K, x2 = 0.7999",0.587 ± 0.007 mPa·s
same,viscosity,"308.15 K, x2 = 0.8999",0.496 ± 0.006 mPa·s
same,mass density,"308.15 K, x2 = 0",811.75 ± 2 kg/m3
same,mass density,"308.15 K, x2 = 0.1003",797.48 ± 2 kg/m3
same,mass density,"308.15 K, x2 = 0.2002",783.26 ± 2 kg/m3
same,mass density,"308.15 K, x2 = 0.3002",769.2 ± 2 kg/m3
same,mass density,"308.15 K, x2 = 0.3999",755.43 ± 2 kg/m3
same,mass density,"308.15 K, x2 = 0.5",742.02 ± 2 kg/m3
same,mass density,"308.15 K, x2 = 0.6",728.74 ± 2 kg/m3
same,mass density,"308.15 K, x2 = 0.6999",715.91 ± 2 kg/m3
same,mass density,"308.15 K, x2 = 0.7999",703.35 ± 2 kg/m3
same,mass density,"308.15 K, x2 = 0.8999",691.05 ± 2 kg/m3
same,mass density,"308.15 K, x2 = 0.92",688.71 ± 2 kg/m3
same,mass density,"308.15 K, x2 = 0.94",686.3 ± 2 kg/m3
same,mass density,"308.15 K, x2 = 0.9599",683.98 ± 2 kg/m3
same,viscosity,"313.15 K, x2 = 0",3.8 ± 0.047 mPa·s
same,viscosity,"313.15 K, x2 = 0.1003",2.875 ± 0.035 mPa·s
same,viscosity,"313.15 K, x2 = 0.2002",2.217 ± 0.027 mPa·s
same,viscosity,"313.15 K, x2 = 0.3002",1.679 ± 0.02 mPa·s
same,viscosity,"313.15 K, x2 = 0.3999",1.298 ± 0.016 mPa·s
same,viscosity,"313.15 K, x2 = 0.5",1.018 ± 0.012 mPa·s
same,viscosity,"313.15 K, x2 = 0.6",0.825 ± 0.01 mPa·s
same,viscosity,"313.15 K, x2 = 0.6999",0.67 ± 0.008 mPa·s
same,viscosity,"313.15 K, x2 = 0.7999",0.55 ± 0.007 mPa·s
same,viscosity,"313.15 K, x2 = 0.8999",0.465 ± 0.006 mPa·s
same,mass density,"313.15 K, x2 = 0",808.17 ± 2 kg/m3
same,mass density,"313.15 K, x2 = 0.1003",793.83 ± 2 kg/m3
same,mass density,"313.15 K, x2 = 0.2002",779.54 ± 2 kg/m3
same,mass density,"313.15 K, x2 = 0.3002",765.4 ± 2 kg/m3
same,mass density,"313.15 K, x2 = 0.3999",751.57 ± 2 kg/m3
same,mass density,"313.15 K, x2 = 0.5",738.08 ± 2 kg/m3
same,mass density,"313.15 K, x2 = 0.6",724.74 ± 2 kg/m3
same,mass density,"313.15 K, x2 = 0.6999",711.84 ± 2 kg/m3
same,mass density,"313.15 K, x2 = 0.7999",699.22 ± 2 kg/m3
same,mass density,"313.15 K, x2 = 0.8999",686.85 ± 2 kg/m3
same,mass density,"313.15 K, x2 = 0.92",684.51 ± 2 kg/m3
same,mass density,"313.15 K, x2 = 0.94",682.09 ± 2 kg/m3
same,mass density,"313.15 K, x2 = 0.9599",679.77 ± 2 kg/m3
same,viscosity,"318.15 K, x2 = 0",3.224 ± 0.04 mPa·s
same,viscosity,"318.15 K, x2 = 0.1003",2.503 ± 0.031 mPa·s
same,viscosity,"318.15 K, x2 = 0.2002",1.979 ± 0.024 mPa·s
same,viscosity,"318.15 K, x2 = 0.3002",1.501 ± 0.018 mPa·s
same,viscosity,"318.15 K, x2 = 0.3999",1.176 ± 0.014 mPa·s
same,viscosity,"318.15 K, x2 = 0.5",0.934 ± 0.011 mPa·s
same,viscosity,"318.15 K, x2 = 0.6",0.758 ± 0.009 mPa·s
same,viscosity,"318.15 K, x2 = 0.6999",0.623 ± 0.007 mPa·s
same,viscosity,"318.15 K, x2 = 0.7999",0.517 ± 0.006 mPa·s
same,viscosity,"318.15 K, x2 = 0.8999",0.439 ± 0.005 mPa·s
same,mass density,"318.15 K, x2 = 0",804.57 ± 2 kg/m3
same,mass density,"318.15 K, x2 = 0.1003",790.15 ± 2 kg/m3
same,mass density,"318.15 K, x2 = 0.2002",775.79 ± 2 kg/m3
same,mass density,"318.15 K, x2 = 0.3002",761.58 ± 2 kg/m3
same,mass density,"318.15 K, x2 = 0.3999",747.67 ± 2 kg/m3
same,mass density,"318.15 K, x2 = 0.5",734.12 ± 2 kg/m3
same,mass density,"318.15 K, x2 = 0.6",720.71 ± 2 kg/m3
same,mass density,"318.15 K, x2 = 0.6999",707.74 ± 2 kg/m3
same,mass density,"318.15 K, x2 = 0.7999",695.05 ± 2 kg/m3
same,mass density,"318.15 K, x2 = 0.8999",682.63 ± 2 kg/m3
same,mass density,"318.15 K, x2 = 0.92",680.27 ± 2 kg/m3
same,mass density,"318.15 K, x2 = 0.94",677.84 ± 2 kg/m3
same,mass density,"318.15 K, x2 = 0.9599",675.52 ± 2 kg/m3
same,viscosity,"323.15 K, x2 = 0",2.851 ± 0.035 mPa·s
same,viscosity,"323.15 K, x2 = 0.1003",2.209 ± 0.027 mPa·s
same,viscosity,"323.15 K, x2 = 0.2002",1.754 ± 0.021 mPa·s
same,viscosity,"323.15 K, x2 = 0.3002",1.351 ± 0.016 mPa·s
same,viscosity,"323.15 K, x2 = 0.3999",1.071 ± 0.013 mPa·s
same,viscosity,"323.15 K, x2 = 0.5",0.859 ± 0.01 mPa·s
same,viscosity,"323.15 K, x2 = 0.6",0.699 ± 0.008 mPa·s
same,viscosity,"323.15 K, x2 = 0.6999",0.592 ± 0.007 mPa·s
same,viscosity,"323.15 K, x2 = 0.7999",0.487 ± 0.006 mPa·s
same,viscosity,"323.15 K, x2 = 0.8999",0.416 ± 0.005 mPa·s
same,mass density,"323.15 K, x2 = 0",800.93 ± 2 kg/m3
same,mass density,"323.15 K, x2 = 0.1003",786.43 ± 2 kg/m3
same,mass density,"323.15 K, x2 = 0.2002",772 ± 2 kg/m3
same,mass density,"323.15 K, x2 = 0.3002",757.71 ± 2 kg/m3
same,mass density,"323.15 K, x2 = 0.3999",743.74 ± 2 kg/m3
same,mass density,"323.15 K, x2 = 0.5",730.12 ± 2 kg/m3
same,mass density,"323.15 K, x2 = 0.6",716.64 ± 2 kg/m3
same,mass density,"323.15 K, x2 = 0.6999",703.6 ± 2 kg/m3
same,mass density,"323.15 K, x2 = 0.7999",690.85 ± 2 kg/m3
same,mass density,"323.15 K, x2 = 0.8999",678.37 ± 2 kg/m3
same,mass density,"323.15 K, x2 = 0.92",675.99 ± 2 kg/m3
same,mass density,"323.15 K, x2 = 0.94",673.57 ± 2 kg/m3
same,mass density,"323.15 K, x2 = 0.9599",671.24 ± 2 kg/m3
